Key:
[1] = target: T1, human NK3 receptor (Homo sapiens, UniProt P29371); experiment: NK3 receptor efficacy and potency assay (FLIPR Calcium 4, BHK cells); assay type: cell-based; details: read-out: Potency cIC50
T1 construct: expressed in transfected cells; membrane preparation
T1 sequence (P29371 1-465): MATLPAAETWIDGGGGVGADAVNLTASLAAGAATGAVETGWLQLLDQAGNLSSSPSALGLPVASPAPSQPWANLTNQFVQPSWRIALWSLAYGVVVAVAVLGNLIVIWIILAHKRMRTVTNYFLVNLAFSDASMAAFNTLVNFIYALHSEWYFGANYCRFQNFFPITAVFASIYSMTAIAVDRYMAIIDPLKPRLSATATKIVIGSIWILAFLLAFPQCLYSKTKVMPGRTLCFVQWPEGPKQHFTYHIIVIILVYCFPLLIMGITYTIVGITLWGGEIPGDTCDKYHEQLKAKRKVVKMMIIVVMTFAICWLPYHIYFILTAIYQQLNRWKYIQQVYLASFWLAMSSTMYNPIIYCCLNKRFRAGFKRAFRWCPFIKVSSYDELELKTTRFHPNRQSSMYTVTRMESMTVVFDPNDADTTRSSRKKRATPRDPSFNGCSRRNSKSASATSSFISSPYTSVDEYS
Experimental: BHK cells stably expressing the human NK3 receptor were seeded in 100 μl media in black walled clear-base 96-wells plates (Costar) aiming at a confluency of 95-100% at the day of assay. The assay was performed according to the FLIPR Calcium 4 Assay kit (Molecular Devices). At the day of the assay, the media was removed and the cells were washed once with the HBSS buffer (Hanks BSS buffer, pH 7.4 containing 20 mM Hepes) before 100 μl of a solution of the calcium assay reagent dissolved in the HBSS buffer containing 2.5 mM probinicid was added to the cells. The plates were incubated for 60 min at 34° C., 10% CO2 before use in the FLIPR for examination of fluorescence.
For efficacy and potency evaluation of compounds, these were diluted in HBSS buffer prior to test. For test of agonist activity, 25 μl of the diluted compound solution was added and the plate was analyzed for 5 minutes in the FLIPR. […] The plates were subsequently analyzed for 5 minutes before the assay was terminated. The maximal increase in fluorescence over background following each ligand addition was determined.

[2] = target: T1, human NK3 receptor; experiment: NK3 receptor binding assay (SPA-based competition binding, 125I-NKB); details: table of Example 10; obtained as described in Example 9; read-out: Affinity Ki
Experimental: Membranepreparation: BHK cells stably expressing the human NK3 receptor were seeded in harvesting plates in Dulbeccos MEM containing GlutaMax (862 mg/l), 1 mM sodium pyruvate, 10% fetal calf serum, 1% Pen/Strep, 1 mg/ml G418 and were grown at 34° C. in a humidified atmosphere containing 10% CO2. To increase receptor expression, 10 μM trichotatin A was added to the media 24 hours before harvest of the cells at a confluency of app 90%. Prior to the harvesting, the cells were washed twice with PBS without Mg^2+ or Ca^2+ and subsequently scrapped of in 10 ml PBS pr harvesting plate. The cells suspension were centrifuged at 1500×G in three minutes before resuspension in 15 mM Tris-HCl pH 7.5 buffer containing 2 mM MgCl2; 0.3 mM EDTA and 1 mM EGTA (buffer A). The cell suspension was homogenised and subsequently centrifuged at 4000×G in 30 minutes. The membrane-pellet was resuspended in buffer A containing 250 mM sucrose, aliquoted and stored at −80° C.
Affinity assay description: The assay was performed as a SPA-based competition-binding assay in a 50 mM Tris pH 7.4 assay buffer containing 120 mM NaCl, 3 mM MnCl2, 40 μg/ml bacitracin, 2 μg/ml Chymostatin, 1 μg/ml Phosphoramidon and 4 μg/ml Leupeptin. […] The assay plate was subsequently under agitation incubated for 90 min at RT. The plate was centrifugated 10 minutes at 500×G and counted in a topcounter 5 minutes pr well.

[3] = cited from earlier work

Row | Structure (SMILES) | IC50 [1] | Ki [2] | effect on cognitive behaviour in clinical trials ([3]; schizophrenics) | effect in clinical trials versus placebo ([3]; in particular on positive symptoms of psychosis)
1 | CC[C@H](NC(=O)c1c(CN2CCOCC2)n(-c2ccccc2)c(=O)c2ccccc12)c1ccccc1 [Example 2r, 3-Morpholin-4-ylmethyl-1-oxo-2-phenyl-1,2-dihydro-isoquinoline-4-carboxylic acid ((S)-1-phenyl-propyl)-amide] | 0.42 µM | 0.32 µM |  | 
2 | CC[C@H](NC(=O)c1c(CN2CC(C)OC(C)C2)n(-c2ccccc2)c(=O)c2ccccc12)c1ccccc1 (stereo partly drawn) [Example 2s, 3-(2,6-Dimethyl-morpholin-4-ylmethyl)-1-oxo-2-phenyl-1,2-dihydro-isoquinoline-4-carboxylic acid ((S)-1-phenyl-propyl)-amide] | 0.34 µM | 0.2 µM |  | 
3 | CC[C@H](NC(=O)c1c(CN2CCCNCC2)n(-c2ccccc2)c(=O)c2ccccc12)c1ccccc1 [Example 2cz, 3-[1,4]Diazepan-1-ylmethyl-1-oxo-2-phenyl-1,2-dihydro-isoquinoline-4-carboxylic acid ((S)-1-phenyl-propyl)-amide] | 0.049 µM | 0.076 µM |  | 
4 | CC[C@H](NC(=O)c1c(O)c(-c2ccccc2)nc2ccccc12)c1ccccc1 [talnetant] |  |  | ameliorate the cognitive behaviour of schizophrenics | 
5 | CC[C@H](NC(=O)c1c(CN2Cc3ccccc3C2)n(-c2ccccc2)c(=O)c2ccccc12)c1ccccc1 [Example 2bn, 3-(1,3-Dihydro-isoindol-2-ylmethyl)-1-oxo-2-phenyl-1,2-dihydro-isoquinoline-4-carboxylic acid ((S)-1-phenyl-propyl)-amide] | 0.3 µM | 0.16 µM |  | 
6 | CC(=O)N(C)C1(c2ccccc2)CCN(CCC[C@]2(c3ccc(Cl)c(Cl)c3)CCCN(C(=O)c3ccccc3)C2)CC1 [Osanetant, osanetant] |  |  |  | superior to placebo
7 | CC[C@H](NC(=O)c1c(CN2CCc3ccccc3C2)n(-c2ccccc2)c(=O)c2ccccc12)c1ccccc1 [Example 2bg, 3-(3,4-Dihydro-1H-isoquinolin-2-ylmethyl)-1-oxo-2-phenyl-1,2-dihydro-isoquinoline-4-carboxylic acid ((S)-1-phenyl-propyl)-amide] | 0.22 µM | 0.16 µM |  | 

Reference: patent US8173639B2, “Isoquinolinone derivatives as NK3 antagonists” (H. Lundbeck A/S, priority 2007, dated 2012)
